{
  "source": "paper PMC11831592",
  "about": "“Repurposing Linezolid in Conjunction with Histone Deacetylase Inhibitor Access in the Realm of Glioblastoma Therapies” (Journal of Medicinal Chemistry, 2025)",
  "key": {"PT#3-R": {"system": "PT#3-R", "experiment": "CCK8 cell proliferation assay, PT#3-R", "format": "cell-based", "conditions": "Homo sapiens, CCK8, 72 h", "description": "Cell viability and drug cytotoxicity were determined by a CCK-8 kit (Cell Counting Kit-8, CK04-13, MD, USA) (CCK8, C0005, Target Molecule Corp., MA, USA) reagent. Cells were seeded 2 × 10^3 per well in the 96-well plate for 24 h, followed by treating at different concentrations of compounds for 72 h. Before the experiment, CCK8 was 10-fold diluted with the culture medium and then incubated with cells for 30 min. Finally, the OD was 450 nm absorbance and calculated for cell viability."}, "CT-2A astrocytoma cells": {"system": "CT-2A astrocytoma cells", "experiment": "Orthotopic CT-2A tumor model, IVIS", "format": "in vivo, mouse", "conditions": "10 mg/kg intraperitoneally", "description": "Animals were imaged using an IVIS to monitor tumor growth and target expression changes. Initially, animals were anesthetized with isoflurane prior to imaging to minimize movement artifacts. D-luciferin (150 mg/kg) was then administered via an intraperitoneal injection. After 60 s, animals were positioned on the imaging platform, and images were acquired with a 10-s exposure. Experimental data were collected and quantified for fluorescence or bioluminescence signals by using Living Image software in the IVIS system. After each imaging session, animal ID, imaging parameters, and imaging time were recorded for subsequent analysis.\nFor orthotopic inoculation, CT-2A cells (1 × 10^5) or CT-2A-R (2 × 10^5) were suspended in 4 μL of DMEM and implanted into the brain of B6 mice. PT#3-R cells (5 × 10^5) were suspended in 4 μL of DMEM and implanted into the brain of SCID mice. After cell implantation, mice were monitored daily for survival, and their body weight was measured every 3 days starting from the seventh day. The oral vehicle consisted of 40% ethyl oleate, 12% lecithin, 20% propylene glycol, and 28% Triton X-100. Mice were administered 5 μL of vehicle per gram of body weight along with 50 mg/kg TMZ or a combination of TMZ and compound 1. […] Upon the natural death of the mice, brains were extracted and entrusted to BioTools for sectioning and HE staining."}, "[1]": {"system": "phospho-ATM, CtIP, RPA32, and RAD51 in PT#3-R GBM cells", "experiment": "Western blot of DNA repair proteins", "format": "cell-based, human", "conditions": "72 h", "description": "The experimental procedure was performed as described in our previous study.[41] On the day prior to the experiment, […] cells were seeded into each well of a 6-well plate. The following day, the cells were washed twice with PBS and treated with 10 μM compound 1. […] The antibody models and dilution ratios used are detailed in Table S1. Protein image collection and quantification were done by the ChemiDoc Touch Imaging System (Cat. No. 12676029, Bio-Rad Laboratories, Inc., CA, USA)."}, "[2]": {"system": "A172-R TMZ-resistant GBM cell line", "experiment": "MTT cytotoxicity assay, A172-R", "format": "cell-based", "conditions": "Homo sapiens, 72 h", "description": "We utilized linezolid as the structural foundation to confirm the cytotoxicity of linezolid-conjugated functional domains against glioblastoma (GBM). We combined it with the binding structures of anti-histone deacetylases (HDACs) (denoted as compounds 1–5 and 11–14), antitubulin (compound 6), anticyclooxygenase (COX) (compound 7), and anti-heat shock protein 90 (Hsp90) (compounds 8–10). These constructs were then administered to TMZ-resistant GBM cell lines A172R and PT#3R at concentrations ranging from 0 to 80 μM over 72 h. The cytotoxic effects of these compounds were assessed using the MTT assay (Table 1 and Supporting Information IV). […] Given the remarkable cytotoxicity of compound 1 on both A172-R and PT#3-R TMZ-resistant cells, this study subsequently focused on compound 1 for further in-depth investigation and mechanistic exploration. To validate that the cytotoxic effect of compound 1 on GBM is not attributed to linezolid alone, we separately treated the TMZ-resistant GBM cell line PT#3-R with compound 1 and linezolid. […] This confirms that the cytotoxicity of compound 1 against GBM is primarily attributable to the inhibitory structure of linezolid-conjugated HDAC (Figure 2A). Furthermore, we compared the cytotoxic effects of compound 1 on various wild-type brain tumor cell lines, including U87MG, PT#3, LN229 GBM cells, and CT-2A mouse astrocyte cell line as well as TMZ-resistant variants cell lines, including U87MG-R, PT#3-R, CT-2A-R, and T98G (MGMT-positive). […] Additionally, we further confirmed the efficacy of compound 1 in GBM treatment.\nMTT assay was employed to evaluate the cytotoxicity of the synthesized compound against resistant GBM cells. The MTT (3-(4,5-dimethylthiazol-2-yl)-2,5-diphenyltetrazolium bromide, catalog no. AM0818-0005) powder was purchased from BIONOVAS (Ontario, Canada). The MTT was prepared at 10 mg/mL stock with ultrapure water and then stored at −20 °C. All cells were seeded 2.5 × 10^4 per well in the 24-well plate for 24 h, followed by treating at different concentrations of compounds for 72 h. Before the experiment, the MTT stock was 10-fold diluted with the culture medium and then incubated with cells for 30 min. After the incubation, the MTT medium was discarded and added 300 μL of dimethyl sulfoxide (DMSO, cat. no. D2650, Sigma-Aldrich, MO, USA) to dissolve the cells. Finally, 100 μL of the mixture was transferred to measure the OD 595 nm absorbance."}},
  "data": [
    {"smiles": "O=C(/C=C/c1ccc(CNC[C@H]2CN(c3ccc(N4CCOCC4)c(F)c3)C(=O)O2)cc1)NO", "note": "[compound 1, (S,E)-3-(4-((((3-(3-Fluoro-4-morpholinophenyl)-2-oxooxazolidin-5-yl)methyl)ami-no)methyl)phenyl)-N-hydroxyacrylamide]", "values": [
      {"measurement": "IC50", "setting": "PT#3-R", "value": "11.1 ± 0.57", "unit": "µM"},
      {"measurement": "growth of orthotopic tumors (IVIS)", "setting": "CT-2A astrocytoma cells", "value": "effectively inhibited the growth of orthotopic tumors"},
      {"measurement": "CtIP, RPA32 and RAD51 protein expression", "setting": "[1]", "value": "significant suppression"},
      {"measurement": "phosphorylation of ATM", "setting": "[1]", "value": "significant increase in the phosphorylation"},
      {"measurement": "IC50", "setting": "[2]", "value": "17.4 ± 1.21", "unit": "µM"}
    ]}
  ]
}
